Measurements published in US10344330B2, “Glatiramer acetate response biomarker mRNA potency assay” (Mylan Inc., priority 2013, dated 2019).

Legend:
Format in all cases: cell-based, mouse
[1] = test system: mIL-5 mRNA in primary LN cells; assay: mIL-5 mRNA by real-time PCR in stimulated LN cells of immunized (SJL/J×BALB/C)F1 mice (Example I); conditions: for mIL-5 mRNA Level: Experiment 1, GA-immunized (SJL/J×BALB/C)F1; for mIL-5 mRNA: not normalized to a reference gene
Procedure: (§1) For each of the three experiments summarized in Table 1, female (SJL/J×BALB/C) F1 hybrid (Jackson Laboratory) mice were immunized by footpad injection with either 250 μg GMA (Mylan Pharmaceuticals, Inc.) and CFA (Sigma Aldrich), or Mannitol and CFA (as a negative control). The GA solution was diluted to 5 mg/mL with Dulbecco's Phosphate-buffered saline. A dose solution was then prepared by mixing the diluted GA solution (5 mg/mL) and CFA (1:1) until well-emulsified. Each mouse received a total injection volume of 0.1 mL (250 μg GA). Animals were immunized on Day 0. Immunized animals were sacrificed via cervical dislocation on Day 10 following immunization. […] The LN were washed 3 times with −5 mL of RPMI medium, and the LN cells isolated by pressing the LN with a syringe plunger. […] The cell suspension was centrifuged at about 200×g for 10 minutes at about 4° C. and re-suspended in ice cold enriched DCCM-1 medium. The LN cells (2.5×10^6 cells/cm^2) were plated in the wells of a 48-well tissue culture plate and stimulated with GA or controls.
(§2) Expression of cytokine mRNA was quantitatively analyzed using a Real-Time PCR system (7500, Applied Biosystems).
(§3) (DCCM1 from Beit Haemek Ltd.; Cat. No. 05 010 1A). There was no MBP treatment for the 2-hour groups.
(§4) Group 1B animals were female (SJL/J×BALB/C) F1 hybrid (Jackson Laboratory) mice immunized by footpad injection with either 250 μg GA and CFA, or Mannitol and CFA (as a negative control). A dose solution was prepared by mixing a diluted GA solution (5 mg/mL) and CFA (1:1). Each mouse received a total injection volume of […] (250 μg GA). Animals were immunized on Day 0. Immunized animals were sacrificed via cervical dislocation on Day 10 following immunization. Lymph nodes from immunized mice were removed and isolated. LN cells (2.5×10^6 cells/cm^2) were plated in the wells of a 48-well tissue culture plate for stimulation with GA.
(§5) Expression of cytokine mRNA was quantitatively analyzed 4 and 6 hours after using a Real-Time PCR system (7500, Applied Biosystems).

IL-10 mRNA in LN cells = assay: IL-10 mRNA by real-time PCR in LN cells of GA-immunized CD-1, BALB/cByJ, SJL/J mice (Example III); conditions: 6 hours
Procedure: (§6) On Day 0, mice were immunized with 250 μg GA (GMA, Mylan Pharmaceuticals, Inc.) and CFA. The GA solution (20 mg/mL) was diluted with Dulbecco's Phosphate-Buffered Saline to 5 mg/mL. The dosing formulation consisted of equal volumes of the diluted GA solution (5 mg/mL) and CFA solution, mixed until well-emulsified. Animals were weighed and allocated to groups. Animals were dosed by injection into four footpads. The injection volume per animal was 0.1 mL (about 10 μL into each front footpad, and 40 μL into each hind footpad).
(§7) Immunized animals were euthanized by cervical dislocation on Day 10 post-immunization. Lymph node cells were isolated from animals and treated with Myelin Basic Protein (MBP, a negative control), Concanavalin A (ConA, a positive control) or GA as shown in Table 16. Lymph nodes in the axillary and popliteal regions were removed aseptically in a purifier clean bench. […] The LN were then washed 3 times with −5 mL of RPMI medium, and isolated by pressing the LN with a syringe plunger. […] The cell suspension was centrifuged at about 200×g for 10 minutes at about 4° C. and re-suspended in ice cold enriched DCCM-1 medium. Cells were seeded in 96-well tissue culture plates.
(§8) LN cells isolated from GA-immunized animals were stimulated with GA (GMA, Mylan Pharmaceuticals, Inc.) at concentrations as indicated in Tables 16 and 17. A positive control was prepared by treating LN cells with 2.5 μg/mL concavalin A (ConA, a non-specific T cell stimulant). Myelin basic protein (MBP, 10 μg/mL) and enriched DCCM-1 medium served as negative controls. The cells from all groups each were stimulated with the same GA lot. Each reaction was set up in triplicate.
(§9) After incubation at about 37° C. in a humidified CO2 incubator for 6 hours, the cells were lysed for total RNA isolation. Total RNA was isolated from treated LN cells using SV 96 Total RNA Isolation System according to the manufacturer's protocol (Promega, Cat. #Z3500). Cells were washed once with Phosphate Buffered Saline (PBS) and lysed in RNA lysis buffer. The lysate was transferred to wells of the SV 96 binding plate. Samples were washed with RNA wash solution and treated with DNase. Total RNA was eluted with nuclease-free water from the binding plate.
(§10) After the reverse transcriptase reaction was completed, cDNA samples were used directly for real-time PCR to measure the response biomarker mRNA levels produced by the stimulated cells. […] All probes for target genes contained FAM dye, and probes for the internal control contained VIC®/MGB dye. Samples will be prepared and run in 96-well plates using a Real-Time PCR system (7500, Life Technologies). This system allows direct detection of PCR-product formation by measuring the increase in fluorescent emission continuously during the PCR reaction. A relative quantitation method was used to analyze changes in mouse IL-2, IL-4, IL-5, IL-10, IL-13, IFN-γ and TNF-α expression in GA-treated samples relative to the untreated control (enriched DCCM-1 treated) samples. The Real-Time PCR program was:
(§11) The levels of mouse cytokine amplicons (IL-2, IL-4, IL-5, IL-10, IL-13, mIFN-γ and TNF-α) were normalized to internal probe levels (GAPDH) from the same samples. The following equations were used to calculate the relative increase in response to GA stimulation compared to the control sample: ΔCT=CT_target−CT_reference ΔΔCT=−ΔCT_Treated−CT_VC

IL-4 mRNA in LN cells = assay: IL-4 mRNA by real-time PCR in LN cells of GA-immunized CD-1, BALB/cByJ, SJL/J mice (Example III); conditions: 6 hours
Procedure: as §6, §7, §8, §9, §10, §11

[2] = test system: IL-1b secreted by LN cells; assay: IL-1b secretion by GA-stimulated LN cells, MSD 9-plex ELISA (Example II); conditions: BALB/cByJ and CD-1; primed by intraplantar injection
[3] = test system: mIL-4 mRNA in primary LN cells; assay: mIL-4 mRNA by real-time PCR in stimulated LN cells of immunized (SJL/J×BALB/C)F1 mice (Example I); conditions: for mIL-4 mRNA Level: Experiment 1, GA-immunized (SJL/J×BALB/C)F1; for mIL-4 mRNA: reference 18S rRNA
Procedure: as §1, §2, §3, §4, §5

[4] = 2 hour post stimulation, GA 10, ConA 2.5 μg/mL
[5] = 4 hour post stimulation, GA 10, MBP 10, ConA 2.5 μg/mL
[6] = 6 hour post stimulation, GA 10, MBP 10, ConA 2.5 μg/mL
[7] = 24 hour post stimulation, GA 10, MBP 10, ConA 2.5 μg/mL
[8] = Group 1B (GA + CFA), 4 hours post-stimulation, GA 10, MBP 10, ConA 2.5 μg/mL
[9] = Group 1B (GA + CFA), 6 hours post-stimulation, GA 10, MBP 10, ConA 2.5 μg/mL
[10] = Group 2B (Mannitol + CFA), 4 hours post-stimulation, GA 10, MBP 10, ConA 2.5 μg/mL
[11] = Group 2B (Mannitol + CFA), 6 hours post-stimulation, GA 10, MBP 10, ConA 2.5 μg/mL
[12] = Group 1C: CD-1, GA-immunized, stimulation 0.3 μg/mL
[13] = Group 1C: CD-1, GA-immunized, stimulation 1 μg/mL
[14] = Group 1C: CD-1, GA-immunized, stimulation 3 μg/mL
[15] = Group 1C: CD-1, GA-immunized, stimulation 10 μg/mL
[16] = Group 2C: BALB/cByJ, GA-immunized, stimulation 0.3 μg/mL
[17] = Group 2C: BALB/cByJ, GA-immunized, stimulation 1 μg/mL
[18] = Group 2C: BALB/cByJ, GA-immunized, stimulation 3 μg/mL
[19] = Group 2C: BALB/cByJ, GA-immunized, stimulation 10 μg/mL
[20] = Group 3C: SJL/J, GA-immunized, stimulation 0.3 μg/mL
[21] = Group 3C: SJL/J, GA-immunized, stimulation 1 μg/mL
[22] = Group 3C: SJL/J, GA-immunized, stimulation 3 μg/mL
[23] = Group 3C: SJL/J, GA-immunized, stimulation 10 μg/mL

Substance: L-glutamic acid polymer with L-alanine, L-lysine and L-tyrosine, acetate (salt) [GA]
- mIL-5 mRNA Level [1, 4]: 1.6 fold change vs control
- mIL-5 mRNA Level [1, 5]: 4.8 fold change vs control
- mIL-5 mRNA Level [1, 6]: 5.1 fold change vs control
- mIL-5 mRNA Level [1, 7]: 1.9 fold change vs control
- mIL-5 mRNA [1, 8]: 4.0 fold change vs control
- mIL-5 mRNA [1, 9]: 4.3 fold change vs control
- mIL-5 mRNA level increase vs DCCM-1-stimulated control ([1]; Group 1B, 4 and 6 hours (text summary of Table 10)): at least 4 fold
- mIL-5 mRNA [1, 10]: 1.0 fold change vs control
- mIL-5 mRNA [1, 11]: 1.2 fold change vs control
- IL-10 mRNA Expression (IL-10 mRNA in LN cells; [12]): 0.7 fold change vs control
- IL-10 mRNA Expression (IL-10 mRNA in LN cells; [13]): 0.8 fold change vs control
- IL-10 mRNA Expression (IL-10 mRNA in LN cells; [14]): 0.9 fold change vs control
- IL-10 mRNA Expression (IL-10 mRNA in LN cells; [15]): 0.9 fold change vs control
- IL-10 mRNA Expression (IL-10 mRNA in LN cells; [16]): 0.7 fold change vs control
- IL-10 mRNA Expression (IL-10 mRNA in LN cells; [17]): 1.0 fold change vs control
- IL-10 mRNA Expression (IL-10 mRNA in LN cells; [18]): 1.3 fold change vs control
- IL-10 mRNA Expression (IL-10 mRNA in LN cells; [19]): 1.3 fold change vs control
- IL-10 mRNA Expression (IL-10 mRNA in LN cells; [20]): 0.5 fold change vs control
- IL-10 mRNA Expression (IL-10 mRNA in LN cells; [21]): 0.6 fold change vs control
- IL-10 mRNA Expression (IL-10 mRNA in LN cells; [22]): 0.5 fold change vs control
- IL-10 mRNA Expression (IL-10 mRNA in LN cells; [23]): 0.8 fold change vs control
- IL-4 mRNA Expression (IL-4 mRNA in LN cells; [12]): 1.6 fold change vs control
- IL-4 mRNA Expression (IL-4 mRNA in LN cells; [13]): 4.7 fold change vs control
- IL-4 mRNA Expression (IL-4 mRNA in LN cells; [14]): 6.1 fold change vs control
- IL-4 mRNA Expression (IL-4 mRNA in LN cells; [15]): 11.2 fold change vs control
- IL-4 mRNA Expression (IL-4 mRNA in LN cells; [16]): 4.2 fold change vs control
- IL-4 mRNA Expression (IL-4 mRNA in LN cells; [17]): 6.5 fold change vs control
- IL-4 mRNA Expression (IL-4 mRNA in LN cells; [18]): 10.1 fold change vs control
- IL-4 mRNA Expression (IL-4 mRNA in LN cells; [19]): 9.8 fold change vs control
- IL-4 mRNA Expression (IL-4 mRNA in LN cells; [20]): 2.0 fold change vs control
- IL-4 mRNA Expression (IL-4 mRNA in LN cells; [21]): 5.2 fold change vs control
- IL-4 mRNA Expression (IL-4 mRNA in LN cells; [22]): 10.0 fold change vs control
- IL-4 mRNA Expression (IL-4 mRNA in LN cells; [23]): 15.3 fold change vs control
- IL-1β secretion, dose response to GA (in words) [2]: Dose response of IL-1β was detected
- mIL-4 mRNA Level [3, 4]: 10.0 fold change vs control
- mIL-4 mRNA Level [3, 5]: 10.0 fold change vs control
- mIL-4 mRNA Level [3, 6]: 16.5 fold change vs control
- mIL-4 mRNA Level [3, 7]: 14.1 fold change vs control
- mIL-4 mRNA [3, 8]: 8.2 fold change vs control
- mIL-4 mRNA [3, 9]: 9.2 fold change vs control
- mIL-4 mRNA level increase vs DCCM-1-stimulated control ([3]; Group 1B, 4 and 6 hours (summary of Table 9)): at least 8 fold
- mIL-4 mRNA [3, 10]: 2.2 fold change vs control
- mIL-4 mRNA [3, 11]: 1.1 fold change vs control
